Results published in paper PMC8047729, “Identification of a nanomolar affinity α-synuclein fibril imaging probe by ultra-high throughput in silico screening” (Chemical Science, 2020).
“Also recorded” adds a separate entry of the source.

Tests used:
[1] = target: T1, αS fibrils, Site 2 ([^3H]Tg-190b) (Homo sapiens, UniProt P37840); assay: Competition binding assay with Site 2 radioligand [^3H]Tg-190b on αS fibrils; details: αS fibrils 100 nM, [^3H]Tg-190b 6 nM, 1 h 37 °C; 95% confidence intervals in parentheses in Table 1 (n = 3)
Procedure: (§1) Fig. S10 Screening of SAR Library Derived from Compound 6. Site 2 radioligand competition binding assays with [3H]Tg-190b. ANOVA was performed with Dunnett’s multiple comparisons test, where […]
(§2) *P<0.0332, **P<0.0021, ***P<0.0002 and ****P<0.0001.
(§3) Competition binding assay. αS fibrils (100 nM for Site 2 and 50 nM for Site 9) were mixed with Site 2 ligand [3H]Tg-190b (6 nM) or Site 9 ligand [3H]BF2846 (3 nM) and varying concentrations of unlabeled compounds 2, 6, 24, 28, 31, 39, 40, or 52. Compounds were diluted in 50 mM Tris-HCl buffer (pH 7.4) and mixed with fibrils and radioligand in a total volume of 150 µL. Total binding was measured in the absence of competitor and nonspecific binding was determined in reactions containing unlabeled Tg-190b (1 µM) or BF2846 (0.5 µM). In a duplicate set of binding […]
(§4) binding to the filter paper. Reactions were incubated at 37 °C for 1 h. After incubation, bound […]
(§5) Filters containing the bound ligand were mixed with 3 mL of scintillation cocktail (MicroScint-20, PerkinElmer) and counted after 12 h of incubation on a MicroBeta System (PerkinElmer). All data points were acquired in triplicate.
(§6) (1 picture or pasted object on this page, not shown here)
(§7) The measured cpm values were converted to % specific binding as described by the equation […]
(§8) % specific binding = !"#$"#% "# ’() *+),)#-) ./ -.0*)’"’.+1#.#,*)-"/"- !"#$"#% ∗ 100 ’.’23 !"#$"#%1#.#,*)-"/"- !"#$"#%
(§9) IC50 values were calculated by fitting the data to Equation S1 below by non-linear regression, using GraphPad Prism software:
(§10) Y = Bottom + (Top-Bottom) / (1+ 10(813.%9:;<)) (S1) where logIC50 is the log of the concentration of competitor that results in binding half-way between Bottom and Top; Top and Bottom are plateaus in the units of Y axis; they are binding observed in the absence of competitor and in the presence of a maximal concentration of competitor, respectively. Binding curves for compounds 2 and 6 are shown in Fig. 2 in the main text and for compounds 6, 24, 28, 31, 39, 40, and 52 in Figs. S11 and S12.

[2] = target: αS fibrils, Site 9 ([^3H]BF2846) (Homo sapiens, UniProt P37840); assay: Competition binding assay with Site 9 radioligand [^3H]BF2846 on αS fibrils; details: αS fibrils 50 nM, [^3H]BF2846 3 nM, 1 h 37 °C; 95% confidence intervals in parentheses (n = 3)
Procedure: as §1, §2, §3, §4, §5, §6, §7, §8, §9, §10

[3] = target: T1, αS fibrils, Site 2 ([^3H]Tg-190b); assay: Single-concentration radioligand competition screen (100 nM compound) against [^3H]Tg-190b; format: binding; details: 100 nM αS fibrils, [^3H]Tg-190b 6 nM
Procedure: Compounds 1–17 were purchased from vendors that were listed on the ZINC15 compound library. […] Total binding was measured in the absence of competitor and nonspecific binding was determined in reactions containing unlabeled Tg-190b (1 μM) or BF2846 (0.5 μM). […] Filters containing the bound ligand were mixed with 3 mL of scintillation cocktail (MicroScint-20, PerkinElmer, Inc.) and counted after 12 h of incubation on a MicroBeta System (PerkinElmer, Inc.). All data points were measured in triplicate. Screening of compounds 18–56 for the SAR study was performed in a similar fashion.
In Vitro Radioligand Binding Assays
Screening compound library. Compounds 1-17 (Fig. S8) were purchased from vendors that were listed on the ZINC15 compound library. 3 Compounds were screened for αS binding and after identifying the lead compound, 6, the core structure of compound 6 and its pyrazole or oxadiazole derivatives were used for similarity search on the Mcule, Inc. website.12 The similarity threshold was set to higher than 0.8, then compound 18-56 (Fig. S9) were chosen and ordered from the four companies mentioned above.
In order to screen the purchased compounds for αS binding, 100 nM solutions of each compound (1-56) were incubated for 1 hour at 37 °C with 100 nM αS fibrils and [3H]Tg-190b (6 nM) or [3H]BF2846 (3 nM) in 50 mM Tris-HCl, pH 7.4. Total binding was measured in the absence of competitor and nonspecific binding was determined in reactions containing unlabeled Tg-190b (1 µM) or BF2846 (0.5 µM). After incubation, bound and free radioligand were […]
scintillation cocktail (MicroScint-20, PerkinElmer; Waltham, MA, USA) and counted after 12 h of incubation on a MicroBeta System (PerkinElmer). All data points were acquired in triplicate.
Percentage of bound radioligand relative to total binding was plotted and data was analyzed by One-Way ANOVA, comparing the mean of each data set to the mean of total binding. […]
are shown in Fig. 2 in the main text, and Fig. S8 and S10.

[4] = target: αS aggregation (Homo sapiens, UniProt P37840); assay: αS aggregation fluorescence polarization experiment; format: biochemical; details: 10 and 100 μM compound, 100 μM αS monomer with 1% labeled αS
Procedure: (§11) Fluorescence Polarization and Photo -Crosslinking Assays
(§12) Aggregation and disaggregation fluorescence polarization experiments. Wild-type and αS with a fluorescein maleimide attached via Cys114 mutation were produced as previously described.10 Aggregations were performed at a total monomer concentration of 100 μM with 1% labeled αS in 20 mM Tris, 100 NaCl pH 7.4 in the presence of 10 and 100 μM compound 6 and with equivalent volume of DMSO as a control. At each timepoint, an aliquot of the fibrilization reaction was removed and diluted 10-fold in buffer. Fluorescence polarization (FP) was measured in a Greiner black 96 half-area well microplate (Greiner Bio-One North America Inc.; Monroe, NC, USA) at a total volume of 50 μL on a Tecan F200 plate reader (San Jose, CA, USA).
Aggregations were performed in triplicate. […]
Fig. S4 Impact of Compound 6 on αS Aggregation. Aggregation of αS in the presence of 1% labeled monomer along with (light-green) 10 and (dark-green) 100 μM compound 6 monitored by (a) fluorescence polarization (FP) and (b) Congo Red absorbance. Aggregation in the presence of compound was compared to aggregation in the presence of volume matched addition of DMSO for (grey) 10 and (black) 100 μM […]
10 and (black) 100 μM compound administration was used as a negative control. […]

[5] = target: T2, αS fibrils (Homo sapiens, UniProt P37840); assay: αS fibril disaggregation (stability) fluorescence polarization experiment; format: biochemical; details: 10 μM labeled fibrils; compound 6 at 10 and 100 μM, EGCG and NDGA at 100 μM
Procedure: as §11, §12
Aggregations were performed in triplicate.
Disaggregation experiments were performed on labeled fibril samples prepared as described above in the absence of compound. A final concentration of 10 μM fibrils was added to each well for each disaggregation experiment and compound 6, nordihydroguaiaretic acid (NDGA), epigallocatechin gallate (EGCG) or DMSO (1%) was added just prior to measurement to the final concentrations detailed in Fig. S3 and total volumes of 50 μL. Samples were shaken at 149 rpm at room temperature with FP measurements taken every 150 s. EGCG and NDGA […]
Fig. S5 Impact of Compound 6 on αS Fibril Stability. Assessment of potential remodeling of 1% labeled αS fibrils by (light-green) 10 and (dark-green) 100 μM compound 6 compared to (red) 100 μM EGCG and (blue) 100 μM NDGA as a positive control. DMSO administration volume-matched to that used for (grey) 10 and (black) 100 μM compound administration was used as a negative control. […]

[6] = target: T2, αS fibrils

| Compound | IC50 [1] | IC50 [2] | Binding in Site 2 radioligand competition screen (in words) [3] | other results |
| --- | --- | --- | --- | --- |
| Cc1ccc(N2CCN(c3cnn(-c4ccccc4)c(=O)c3Cl)CC2)cc1C [Compound 2] | 490 nM | – | – | – |
| CC(Oc1ccc(F)cc1)C(=O)Nc1cc(-c2ccccc2)no1 (stereo not drawn) [Compound 23] | – | – | bind poorly | – |
| Cc1ccc(OCC(=O)Nc2cc(-c3ccc(Br)cc3)no2)cc1C [Compound 28] | – | 12.6 nM | moderate to strong binding | – |
| COc1ccc(OCC(=O)Nc2noc(-c3ccccc3)n2)cc1 [Compound 48] | – | – | bound more poorly than the corresponding isoxazole compound | – |
| O=C(COc1ccc(F)cc1)Nc1noc(-c2ccccc2)n1 [Compound 50] | – | – | bound more poorly than the corresponding isoxazole compound; also recorded: weak binders | – |
| O=C(COc1ccccc1)Nc1noc(-c2ccccc2)n1 [Compound 51] | – | – | bound more poorly than the corresponding isoxazole compound | – |
| O=C(COc1ccc(F)cc1)Nc1cc(-c2ccccc2)n[nH]1 [Compound 55] | – | – | moderate affinity | – |
| Cc1ccc(OCC(=O)Nc2cc(-c3ccc(I)cc3)no2)cc1C [Compound 61] | – | – | – | Kd [6]: 1 nM; Selectivity for αS fibrils over amyloid β (Aβ42 fibrils) ([6]; from saturation binding Kd values): ~5 fold |
| O=C(O[C@@H]1Cc2c(O)cc(O)cc2O[C@@H]1c1cc(O)c(O)c(O)c1)c1cc(O)c(O)c(O)c1 [EGCG, epigallocatechin gallate, reference compound] | – | – | – | Effect on stability of αS fibrils [5]: disrupted fibril stability |
| CC(Cc1ccc(O)c(O)c1)C(C)Cc1ccc(O)c(O)c1 (stereo not drawn) [NDGA, nordihydroguaiaretic acid, reference compound] | – | – | – | Effect on stability of αS fibrils [5]: disrupted fibril stability |

The next lines start with results.

| IC50 [1] | IC50 [2] | Binding in Site 2 radioligand competition screen (in words) [3] | Compound | other results |
| --- | --- | --- | --- | --- |
| 9.49 nM | 109 nM | high affinity | Cc1ccc(OCC(=O)Nc2cc(-c3ccc(F)cc3)no2)cc1C [Compound 6] | Effect on rate of αS aggregation [4]: No significant effect; also recorded: did not show any significant effect; Effect on stability of αS fibrils [5]: no apparent effect; also recorded: did not show any significant effect |
| – | – | moderate to strong binding | COc1ccc(OCC(=O)Nc2cc(-c3ccc(C)cc3)no2)cc1 [Compound 19] | – |
| 95.1 nM | 557 nM | moderate to strong binding | COc1ccc(OCC(=O)Nc2cc(-c3ccccc3)no2)cc1 [Compound 24] | – |
| – | – | weak binders | O=C(COc1ccc(F)cc1)Nc1cc(-c2ccccc2)no1 [Compound 25] | – |
| – | – | hinder binding | COc1ccccc1OCC(=O)Nc1cc(-c2ccccc2)no1 [Compound 27] | – |
| 68.7 nM | 37 nM | moderate to strong binding | COc1ccc(OCC(=O)Nc2cc(-c3ccc(Br)cc3)no2)cc1 [Compound 31] | – |
| – | – | moderate to strong binding | COc1ccc(OCC(=O)Nc2cc(-c3ccc(F)cc3)no2)cc1 [Compound 34] | – |
| 95.7 nM | > 1000 nM | moderate to strong binding | COc1ccc(OCC(=O)Nc2cc(-c3ccc(F)c(F)c3)no2)cc1 [Compound 39] | – |
| 19.6 nM | > 1000 nM | moderate to strong binding | Cc1ccc(OCC(=O)Nc2cc(-c3ccc(F)c(F)c3)no2)cc1C [Compound 40] | – |
| 30.7 nM | > 1000 nM | moderate to strong binding | Cc1ccc(OCC(=O)Nc2cc(-c3ccccc3)no2)cc1C [Compound 52] | – |
